Laboratory results published in patent US8486374B2, “Hydrophilic, non-aqueous pharmaceutical carriers and compositions and uses” (Foamix Ltd., priority 2004, dated 2013).
Counter-ions that a name gives are not always drawn. Like-named read-outs stand apart in the source and are kept apart here.

How the values were obtained:
[1] = anti-inflammatory steroids at typical concentration in topical products (triamcinolone acetonide 0.025%-0.1% medium, 0.5% high); cited from earlier work
[2] = Shakability of the composition; format: physicochemical
From the text: ‘Shakability’ means that the composition contains some or sufficient flow to allow the composition to be mixed or remixed on shaking. That is, it has fluid or semi fluid properties. A breakable foam is that is thermally stable, yet breaks under sheer force.
‘Shakability’ means that the composition contains some or sufficient flow to allow the composition to be mixed or remixed on shaking. That is, it has fluid or semi fluid properties. In some very limited cases it may still be possible to have a foamable composition which is flowable but not apparently shakable.

[3] = Foam appearance (color, odor, form); format: physicochemical; parameters: key to ODOR: No odor (N.O.); key to COLOR: white (W)
[4] = Predicted physical characteristics of the resultant foam after adding an active agent; format: physicochemical; conditions: predicted on adding the active (BMV […] w/w; estradiol hemihydrate about 0.0051% w/w) with modulating agent to the carrier of the example at the place
[5] = Chemical stability: amount of active agent in foam by HPLC on storage; format: physicochemical
Experimental: The amount of active agent present is analyzed in foam expelled from various pressurized canisters containing foam formulations using HPLC. Analysis is carried out at zero time and at appropriate time intervals thereafter. The canisters are stored in controlled temperature incubators at 5° C., at 25° C., at, 40° C. and at 50° C. At appropriate time intervals canisters are removed and the amount of active agent in the foam sample is measured. […] All samples were stored at 50° C. for 4 weeks, in order to assess their stability. The following table provides the results of this short-term stability study, which indicated high compatibility between the polyol composition and the steroid drugs, which are known to be temperature-sensitive.

[6] = cited from earlier work
candida albicans = experiment: Comparative in-vitro antifungal activity (Petri dish spreading); format: cell-based
From the text: An exemplary case for the inclusion of an anti-infective agent in a hygroscopic composition is provided herewith. […] Thus, combining an antifungal agent in a hygroscopic composition results in an expansion of the spectrum of infective strains that can benefit form the therapy, and furthermore, in can render an improved effect of such a composition on mixed infections or in infections that are not accurately diagnosed.
A comparative in-vitro study was set to evaluate the effect of Composition A, consisting of 2% terbinafine, 95.3% gr. polyethylene glycol, 0.5% hydroxypropyl cellulose and 2.2% steareth-2, in comparison with Composition B (an oil in water emulsion containing 2% terbinafine) and Composition C a commercial 1% bifonazole cream.
Three fungal strains (microsporum canis, trichophyton mentagrophytes and trichophyton rubrum) and one yeast (candida albicans) were seeded in the center of a Petri dish, and then, were surrounded by a film containing each of the compositions, using a swab, soaked with each of the compositions. The proliferation and spreading of the microorganisms was followed up for 14 day by visual and photographic observations.

[7] = active agent in stock of PEG-400 97.5, hydroxypropyl cellulose 0.5, steareth 2 2.0 (first Example 29)
[8] = active agent in stock of propylene glycol 46, glycerin 33, dimethyl isosorbide 15, stearyl alcohol, hydroxypropyl cellulose, laureth-4, GMS/PEG 100 stearate (Example 30)
[9] = active agent in stock of propylene glycol 91, stearyl alcohol 2, Klucel EF 2, laureth-4 2, glyceryl monostearate/PEG 100 stearate 3 (second Example 29)

| SMILES | Relative Potency [1] | SHAKABILITY [2, 7] | SHAKABILITY [2, 9] | COLOR [3, 7] | ODOR [3, 7] | COLOR [3, 9] | ODOR [3, 9] | also measured |
| --- | --- | --- | --- | --- | --- | --- | --- | --- |
| CCC(=O)OCC(=O)[C@@]1(OC(=O)CC)[C@H](C)C[C@H]2[C@H]3[C@H]([C@@H](O)C[C@@]21C)[C@@]1(C)C=CC(=O)C=C1C[C@H]3Cl [Alcometasone dipropionate] | Medium Potency | – | – | – | – | – | – | – |
| O=C(O)CCCCCCCC(=O)O [Azelaic acid] | – | Yes | Yes | W | N.O | W | N.O | SHAKABILITY [2, 8]: Yes; COLOR [3, 8]: W; ODOR [3, 8]: N.O |
| O=C(OOC(=O)c1ccccc1)c1ccccc1 [Benzoyl peroxide] | – | Yes | Yes | W | N.O | W | N.O | SHAKABILITY [2, 8]: Yes; COLOR [3, 8]: W; ODOR [3, 8]: N.O |
| CCCCC(=O)O[C@]1(C(=O)CO)[C@@H](C)C[C@H]2[C@@H]3CCC4=CC(=O)C=C[C@]4(C)[C@@]3(F)[C@@H](O)C[C@@]21C [Betamethasone 17 valerate micronized, Betamethasone 17 valerate] | Medium Potency | Yes | Yes | W | N.O | W | N.O | SHAKABILITY [2, 8]: Yes; effect on the physical characteristics of the resultant foam [4]: minimal effect; COLOR [3, 8]: W; ODOR [3, 8]: N.O |
| C[C@H]1C[C@H]2[C@@H]3CCC4=CC(=O)C=C[C@]4(C)[C@@]3(F)[C@@H](O)C[C@]2(C)[C@@]1(OC(=O)c1ccccc1)C(=O)CO [Betamethasone-17-benzoate] | High Potency | – | – | – | – | – | – | – |
| CCC(=O)OCC(=O)[C@@]1(OC(=O)CC)[C@@H](C)C[C@H]2[C@@H]3CCC4=CC(=O)C=C[C@]4(C)[C@@]3(F)[C@@H](O)C[C@@]21C [Bethamethasone Dipropionate] | High Potency | – | – | – | – | – | – | % Degradation after 4 weeks at 50° C. ([5]; 4 weeks): 0% |
| Cn1c(=O)c2c(ncn2C)n(C)c1=O [Caffeine] | – | Yes | Yes | W | N.O | W | N.O | SHAKABILITY [2, 8]: Yes; COLOR [3, 8]: W; ODOR [3, 8]: N.O |
| C=C1/C(=C\C=C2/CCC[C@]3(C)[C@@H]([C@H](C)/C=C/[C@@H](O)C4CC4)CC[C@@H]23)C[C@@H](O)C[C@@H]1O [Calcipotriol hydrate] | – | Yes | Yes | W | N.O | W | N.O | SHAKABILITY [2, 8]: Yes; COLOR [3, 8]: W; ODOR [3, 8]: N.O |
| Cc1cc(C2CCCCC2)n(O)c(=O)c1 [Ciclopiroxolamine] | – | Yes | Yes | W | N.O | W | N.O | SHAKABILITY [2, 8]: Yes; COLOR [3, 8]: W; ODOR [3, 8]: N.O |
| CCC(=O)O[C@]1(C(=O)CCl)[C@@H](C)C[C@H]2[C@@H]3CCC4=CC(=O)C=C[C@]4(C)[C@@]3(F)[C@@H](O)C[C@@]21C [Clobetasol Propionate] | Highest Potency | – | – | – | – | – | – | – |
| CCCC(=O)O[C@]1(C(=O)CCl)[C@H](C)C[C@@H]2[C@@H]3CCC4=CC(=O)C=C[C@]4(C)[C@]3(F)C(=O)C[C@@]21C [Clobetasone-17-butyrate] | Medium Potency | – | – | – | – | – | – | – |
| CC1(C)O[C@@H]2C[C@H]3[C@@H]4CCC5=CC(=O)C=C[C@]5(C)[C@H]4[C@@H](O)C[C@]3(C)[C@]2(C(=O)CO)O1 [Desonide] | Low Potency | – | – | – | – | – | – | – |
| C[C@]12CC[C@@H]3c4ccc(O)cc4CC[C@H]3[C@@H]1CC[C@@H]2O [Estradiol hemihydrate] | – | – | – | – | – | – | – | effect on the physical characteristics of the resultant foam [4]: minimal effect |
| CC(=O)OCC(=O)[C@@]12OC(C)(C)O[C@@H]1C[C@H]1[C@@H]3C[C@H](F)C4=CC(=O)C=C[C@]4(C)[C@@]3(F)[C@@H](O)C[C@@]12C [Flucinonide] | Medium Potency | – | – | – | – | – | – | – |
| CC1(C)O[C@@H]2C[C@H]3[C@@H]4C[C@H](F)C5=CC(=O)C=C[C@]5(C)[C@@]4(F)[C@@H](O)C[C@]3(C)[C@]2(C(=O)CO)O1 [Fluocinolone Acetonide] | Medium Potency | – | – | – | – | – | – | – |
| CC1(C)O[C@@H]2C[C@H]3[C@@H]4CCC5=CC(=O)CC[C@]5(C)[C@@]4(F)[C@@H](O)C[C@]3(C)[C@]2(C(=O)CCl)O1 [Halcinonide] | High Potency | – | – | – | – | – | – | – |
| CC(=O)OCC(=O)[C@@]1(O)CC[C@H]2[C@@H]3CCC4=CC(=O)CC[C@]4(C)[C@H]3[C@@H](O)C[C@@]21C [Hydrocortison Acetate] | Low Potency | – | – | – | – | – | – | – |
| CCCC(=O)O[C@]1(C(=O)CO)CC[C@H]2[C@@H]3CCC4=CC(=O)CC[C@]4(C)[C@H]3[C@@H](O)C[C@@]21C [Hydrocortison Butyrate] | – | – | – | – | – | – | – | % Degradation after 4 weeks at 50° C. ([5]; steroid in TECH-PG 032, stored at 50° C. for 4 weeks): 2.6%; % Degradation after 4 weeks at 50° C. ([5]; steroid in TECH-PG 033, stored at 50° C. for 4 weeks): 2.8% |
| C[C@]12CCC(=O)C=C1CC[C@@H]1[C@@H]2[C@@H](O)C[C@@]2(C)[C@H]1CC[C@]2(O)C(=O)CO [Hydrocortisone] | Low Potency | – | – | – | – | – | – | – |
| CC(=O)N1CCN(c2ccc(OCC3COC(Cn4ccnc4)(c4ccc(Cl)cc4Cl)O3)cc2)CC1 (stereo not drawn) [Ketoconazole] | – | Yes | Yes | W | N.O | W | N.O | – |
| CCC(=O)O[C@]1(C(=O)COC(C)=O)CC[C@H]2[C@@H]3C[C@H](C)C4=CC(=O)C=C[C@]4(C)[C@H]3[C@@H](O)C[C@@]21C [Methylprednisolone aceponate] | High Potency | – | – | – | – | – | – | – |
| C[C@@H]1C[C@H]2[C@@H]3CCC4=CC(=O)C=C[C@]4(C)[C@@]3(Cl)[C@@H](O)C[C@]2(C)[C@@]1(OC(=O)c1ccco1)C(=O)CCl [Mometasone furoate] | Medium Potency | – | – | – | – | – | – | – |
| C/C(=C\C(=O)OCCCCCCCCC(=O)O)C[C@@H]1OC[C@H](C[C@@H]2O[C@H]2[C@@H](C)[C@H](C)O)[C@@H](O)[C@H]1O [Mupirocin] | – | Yes | Yes | W | N.O | W | N.O | solubility ([6]; in mineral oil and other commonly used ointment solvents): practically insoluble |
| CC1(C)C(C=C(Cl)Cl)C1C(=O)OCc1cccc(Oc2ccccc2)c1 (stereo not drawn) [Permethrin BPC (cis:trans 25:75), Permethrin] | – | Yes | Yes | W | N.O | O.W | No | – |
| CN1C(C(=O)Nc2ccccn2)=C(O)c2ccccc2S1(=O)=O [Piroxicam] | – | Yes | Yes | Light | N.O | O.W | No | – |
| CCOC(=O)O[C@]1(C(=O)COC(=O)CC)CC[C@H]2[C@@H]3CCC4=CC(=O)C=C[C@]4(C)[C@H]3[C@@H](O)C[C@@]21C [Prednicarbate] | Medium Potency | – | – | – | – | – | – | – |
| O=C(O)c1ccccc1O [Salicylic acid] | – | Yes | Yes | W | N.O | O.W | No | – |
| CN(C/C=C/C#CC(C)(C)C)Cc1cccc2ccccc12 [Terbinafine HCl] | – | Yes | Yes | W | N.O | W | No | – |
| CN(C/C=C/C#CC(C)(C)C)Cc1cccc2ccccc12 [terbinafine] | – | – | – | – | – | – | – | solubility ([6]; in common formulation excipients): hard to dissolve; inhibition of the spreading of candida albicans (candida albicans; control preparation, same concentration in an emulsion base): not effective; inhibition of the spreading of candida albicans (candida albicans; dissolved in a hygroscopic carrier): effectively inhibited the spreading |
